System: rat
Test: animal or person
Type: in vivo
Settings: ip

Cc1cnc(NC(=O)C2=C(O)c3ccccc3S(=O)(=O)N2C)s1 [meloxicam]
ED50 (Rattus norvegicus, 3 h, read-out: ED50 (95% CI), applied alone): 141 mg/kg
analgesic effect in words (rat, in vivo): dose-dependent analgesic effect

Reference: patent US20130310371A1 (priority 2012, published 2013)
